Reference: PMC7281206, “Cysteine Cathepsins Inhibition Affects Their Expression and Human Renal Cancer Cell Phenotype” (Cancers, 2020)
*: point of attachment. CH2F = FC*

Experiments:
Assay type in all cases: cell-based, human
[1] = test system: 769-P cells (endolysosomal compartment); experiment: LysoTracker red fluorescence, 769-P; conditions: 20 μM; 48 h; 75 nM LysoTracker red, 1 h, Ex/Em 570/600
Description: First, 1.5 × 10^4 769-P or A498 cells were seeded in 96-well plates in full medium. The day after the cells were treated with the peptides for 3 consecutive days to establish 24, 48, and 72 h groups of treatment. LysoTracker Red fluorescence intensity was measured via microplate reader following the protocols described in [75] and applying Ex/Em = 570/600. The cells were incubated with 75 nM of LysoTracker red for 1 h. […]
Figure S6. The effect of the peptide inhibitors on human 769‐P and A498 renal cancer cell on
lysosomes integrity. (a) 769‐P and (b) A498 cells were treated with increasing doses of Ac‐PLVE‐FMK
(red bars) and Ac‐VLPE‐FMK (blue bars) (2.5–250 μM). NR uptake was measured after 24, 48, and 72
h via MTT assay. (c) LysoTracker red evaluation in 769‐P and (d) A498 cells after 24, 48, and 72 h with
the inhibitors (20 μM). Data represent the mean (± S.D.) of at least three independent experiments,
each performed in triplicate. […]

769-P cells = experiment: Cell viability/proliferation (MTT), 769-P; conditions: 2.5–250 μM; for Cell viability: 72 h; for Effect on cell proliferation: within 48 h
Description: Figure 3 The effect of the peptide inhibitors on human 769-P and A498 renal cancer cell proliferation and proteolytic activity. (a) 769-P and (b) A498 cells were treated with increasing doses of Ac-PLVE-FMK (red bars) and Ac-VLPE-FMK (blue bars) (2.5–250 μM). Cell proliferation was measured after 24, 48, and 72 h via MTT (3-(4,5-dimethylthiazol-2-yl)-2,5-diphenyltetrazolium bromide) assay. Data represent the mean (±S.D.) of at least three independent experiments, each performed in triplicate. (c) Fluorescence microscopy evaluation and quantification of the cell proteolytic activity in 769-P and (d) A498 cells towards the fluorogenic substrate Ac-PLVQ-AMC in the absence or presence of Ac-PLVE-FMK and Ac-VLPE-FMK. The cells were seeded in a 96-well plate and after exposure to the peptides for 30 min prior incubation with the fluorescent substrate Ac-PLVQ-AMC for 10 min. Data are expressed as mean (±S.D.), and significance was calculated through one-way ANOVA followed by Dunnet’s test. * = p < 0.05, ** = p < 0.01, *** = p < 0.001.
The human renal cancer cell line lines […], A498 were obtained from Dr. Vadim Pokrovsky (purchased from American Type Culture Collection). The cells were cultured in RPMI 1640, supplemented with 10% fetal bovine serum and 1% mixture of antibiotics penicillin-streptomycin (all from Gibco, Waltham, MA, USA) at 5% CO2 and 37 °C in a humidified chamber. Cells were grown to confluence and harvested by trypsinization, using a 0.25 mg/mL trypsin/EDTA solution (ThermoFisher, Carlsbad, CA, USA) and resuspended in the fresh culture medium. Viable cells were enumerated on the Countess II FL Automated Cell Counter (ThermoFisher, Waltham, MA, USA), following Trypan Blue staining. The cell lines were tested for mycoplasma contamination regularly, using the Molecular Probes™ MycoFluor Mycoplasma Detection Kit (ThermoFisher, Waltham, MA, USA).
The cell number was evaluated by counting viable cells using the MTT (3-(4,5-dimethylthiazol-2-yl)-2,5-diphenyltetrazolium bromide) colorimetric assay. A total of 2 × 10^4 cells/well were seeded on independent 96-well plates for each time point (0, 24, 48, and 72 h), with five replicates and treated with two inhibitors (2.5–250 μM). Then, 10 µL of the MTT reagent was added to each well, and cells were incubated for another 5 h. Next, the absorbance value was measured using a CLARIOstar® Plus plate reader (BMG Labtech, Ortenberg, Germany) at 490 nm. Triplicate wells were assayed, and S.D.s were determined.

SNAIL1 in A498 cells = experiment: SNAIL1 protein expression (western blot), A498; conditions: 72 h
Description: These properties could be the result of the modulation of the effectors controlling EMT, as previously shown in other tumor models. To test this hypothesis, the cells were treated with the inhibitors for 24, 48, and 72 h by changing the media every day, and they were tested for E-cadherin and SNAIL1 expression (Figure 6; detail information of western blots can be seen in Supplementary Figure S7). Figure 6 Effects of the peptides on E-cadherin and SNAIL1 protein expression: (a,b) protein expression of E-cadherin and SNAIL1 in 769-P and (c,d) A498 cells after 24, 48, and 72 h of treatment with the peptides. Data are represented as mean ± SD of at least three replicates. Significance was calculated through one-way ANOVA, followed by Dunnet’s test. Cells were seeded in RPMI containing 10% FBS and cultured for 24 h. Next, 30 µM of inhibitors were added to the culture medium and incubated for 24, 48, and 72 h. Control cells were treated with 0.01% DMSO. At all time points the samples were lysed in 50 mM Tri-HCl (pH 8.0), 100 mM NaCl, 0.5% NP-40, 1% Triton X-100, 1× protease inhibitor cocktail (ThermoFisher, Waltham, MA, USA). The 50 µg of protein lysates were separated by electrophoresis on a 12% SDS-PAGE gel and transferred to the PFDF membranes. […] After an additional wash (three times with PBS), reactive bands were detected by chemiluminescence (Bio-Rad, Irvine, CA, USA). […]

Substance | LysoTracker red fluorescence [1] | Cell viability (769-P cells) | Effect on cell proliferation (769-P cells) | SNAIL1 protein expression (SNAIL1 in A498 cells)
Ac-PLVE-CH2F [Ac-PLVE-FMK] | slightly increasing | cell viability increased, reaching values not significantly different from the control cells | cytostatic properties on both cell lines only within 48 h of treatment | dropped to values more similar to the control
Ac-VLPE-CH2F [Ac-VLPE-FMK] | slightly increasing | cell viability increased, reaching values not significantly different from the control cells | cytostatic properties on both cell lines only within 48 h of treatment | dropped to values more similar to the control
